Assay results published in article PMC11651915, “Small molecule protein assembly modulators with pan-cancer therapeutic efficacy” (Open Biology, 2024).

Experiments:
CCRF-CEM = assay: cells; format: cell-based; conditions: Homo sapiens, NCI-60, 48 h
HL-60(TB) = assay: cells; conditions: Homo sapiens, HL-60, 48 h
HS 578T = assay: cells; conditions: Homo sapiens, 48 h
MDA-MB-468 = assay: cells; conditions: Homo sapiens, MDA-MB-468, 48 h
DU-145 = assay: cells; conditions: Homo sapiens, DU-145, 48 h
Hennes 20 cells = assay: Cell growth recovery assay; format: cell-based, Chinese hamster; conditions: PAV-617 0.3 µM 24 h, PAV-951 0.4 µM 6 h, followed to day 14
Description: To confirm that the inhibition observed in low-density Hennes 20 cells resulted from temporary arrest of proliferation and not cell death, compound was removed after a period of treatment and cell growth was measured over the subsequent two weeks for recovery potential. Once compound was removed, following a period of recovery, cell proliferation was restored over time for both chemotypes (see figure 1f,g). By day 11, cell density in compound-treated cells had caught up to that in the DMSO-treated cells (see figure 1f,g).
A 96-well plate was seeded with either Hennes 20 or LNCaP C-33 cells at 500 cells per well in 90 µl of minimum essential media and incubated at 37°C for 24 h. 0.5% DMSO was diluted in media and added to six control wells for each plate. PAV-617 was diluted in media and added to three wells at a concentration of 0.3 µM. PAV-951 was diluted in media and added to concentration of 0.4 µM. After 24 h of PAV-617 treatment or 6 h of PAV-951 treatment, the medium containing compound was removed and replaced with fresh media. After 72 h (day 5), plates were assayed with AlamarBlue and fluorescence was read at 530/590. The medium containing AlamarBlue was removed and replaced with fresh media. After another 72 h (day 8) plates were assayed with AlamarBlue and fluorescence again, then medium containing AlamarBlue was removed and replaced with fresh media. […]

SF-539 = assay: cells; conditions: Homo sapiens, SF-539, 48 h
COR-L105 = assay: Eurofins OncoPanel (CellTiter-Glo); format: cell-based; conditions: Homo sapiens, 72 h, 3 days
NL4-3 Rluc HIV = assay: microbe, parasite or virus in culture; format: cell-based; conditions: Human immunodeficiency virus 1, NL43, MT2, 96 h, read-out: EC50 against HIV
NCI/ADR-RES = assay: cells; conditions: Homo sapiens, 48 h
SK-MEL-5 = assay: cells; conditions: Homo sapiens, SK-MEL-5, 48 h

CC(C)CCNc1ncnc2cc(N3CCN(c4ccc5c(NCCC(C)C)ncnc5c4)CC3)ccc12 [PAV-951]
GI50 (CCRF-CEM): 198 nM
GI50 (HL-60(TB)): 269 nM
GI50 (HS 578T): 352 nM
CC50 (HS 578T; read-out: LC50): > 100000 nM
GI50 (MDA-MB-468): 1470 nM
CC50 (MDA-MB-468; read-out: LC50): 5610 nM
GI50 (DU-145): 283 nM
CC50 (DU-145; read-out: LC50): 2830 nM
recovery of cell growth after removal of compound (Hennes 20 cells): recovered over time
GI50 (SF-539): 683 nM
CC50 (SF-539; read-out: LC50): 4530 nM
IC50 (COR-L105): 962 nM
EC50 (NL4-3 Rluc HIV): 660 nM
GI50 (NCI/ADR-RES): 401 nM
CC50 (NCI/ADR-RES; read-out: LC50): 4850 nM
GI50 (SK-MEL-5): 1870 nM
CC50 (SK-MEL-5; read-out: LC50): 9120 nM
